# Measurements reported in a melting point compilation (Tetko et al.; mined from patent text by program, amines drawn as free bases though some values may be those of a salt).
row,SMILES,melting point [°C]
1,CC(C)CCOc1c(-c2ccc(S(C)(=O)=O)cc2)cnn(-c2ccc(F)cc2)c1=O,117 to 120
2,COc1cc2ncc(OC3CC4CC3C(O)C4O)nc2cc1OC (centres undefined),85 to 88
3,Cc1cccc(-c2nscc2C(=O)O)c1,144 to 146
4,O=C(O)c1cc(=O)c2c(OCC(O)COc3ccc(Cl)cc3)cccc2o1 (centres undefined),191 to 193
5,CCOC(=O)C1=C(C)N=C(N)C(Cc2ccccc2)(C(=O)OCC)C1c1cccc([N+](=O)[O-])c1 (centres undefined),208
6,CCc1c(Cc2ccccc2)[nH]c(=O)[nH]c1=O,73 to 74
7,CCOC(=O)c1cn(C2CC2)c2nc(Cl)c(F)c(C)c2c1=O,170 to 171
8,CCc1nc(-c2ncn3c4ccc(Cl)cc4c(=O)n(C)c23)no1,196 to 198
9,O=C1CCCc2nc3ccccc3c(NCc3ccc(F)cc3)c21,158 to 159
10,O=C(CCl)Nc1nc2cc3nc(NC(=O)CCl)sc3cc2s1,330
11,COc1cc(N)c(S(C)(=O)=O)cc1C(=O)O,178 to 180
12,CSCc1cccc(CNC(=O)c2nc3scc(COCc4ccc(C(=O)O)cc4)c3c(=O)[nH]2)c1,222 to 223
13,O=C(Nc1ccc(F)cc1)c1cccc(Cl)n1,98
14,Cn1cc(-c2cccc(C3NCCc4c3sc3c4CC(C)(C)C3)c2CO)cc(Nc2cnn3c2COCC3)c1=O (centres undefined),167 to 168
15,Cn1ccc2ncnc(Oc3ccc(NC(=O)Nc4cccc(C(F)(F)F)c4)c(Cl)c3)c21,192 to 194
16,Cc1nn(-c2cc(Oc3ccc([N+](=O)[O-])cc3)c(Cl)cc2Cl)c(=O)n1C(F)F,99 to 101
17,O=C1OCCC=C1c1ccc(F)c(F)c1,72 to 78

row,SMILES,melting point [°C]
1,COc1ccc(C(C)N(C)CCCOc2ccc(S(=O)(=O)C3=C(C(C)C)N(C)CC3)cc2)cc1OC (centres undefined),100 to 102
2,O=C(Nc1nccs1)c1nc(-c2ccc(N3CCOCC3)cc2)[nH]c1-c1ccc(Cl)cc1,> 260
3,COC(=O)c1c(C(=O)OC)c(-c2ccc(OC)cc2)c2cc3c(cc2c1O)OCO3,169 to 171
4,CC(C)(C)c1ccc(CCC(O)CCC2CCCCCC2)cc1NC(=O)CC1c2ccccc2Oc2ccccc21 (centres undefined),146 to 147
5,COc1ccc(C(=O)Nc2ccccc2)cc1Nc1cccc(NC(C)=O)c1,202 to 203
6,CCOC(=O)C1=Cc2cc(S(C)=O)ccc2OC1C(F)(F)F (centres undefined),92.2 to 98.4
7,OC1CCCc2c(-c3ccc4nc(-c5ccc(Cl)cc5)cn4c3)cccc21 (centres undefined),218 to 220
8,O=C(CCc1ccccc1)c1cccnc1Nc1ccc(F)cc1,100 to 102
9,OC(CCl)c1ccc(-c2ccc(SC(F)F)cc2)cc1 (centres undefined),66 to 68
10,CCn1cc(C(=O)O)c(=O)c2cc(F)c(N3CCN(C)CC3)nc21,228 to 230
11,CNC(=S)NS(=O)(=O)c1cc(CCNC(=O)c2cc(Cl)ccc2OC)ccc1OC,190 to 193
12,Ic1ccc2c(c1)Sc1ccc(I)cc1S2,169 to 170
13,CC(=O)c1c(C#N)nn(-c2c(Cl)cc(C(F)(F)F)cc2Cl)c1N,200 to 201
14,Cc1nc(C)c(Cl)c(NCc2nccc(CNCCO)c2Cl)n1,162 to 165
15,CC(=O)Oc1ccc2c(c1)COc1cc3cc(OC(C)=O)ccc3cc1-2,194 to 195
16,CC(C)c1ccc(-n2c(CC(=O)O)c(C(=O)O)c3cc(Oc4cccc(C(F)(F)F)c4)ccc32)cc1,185 to 190
17,CC1CC2C3CC(Cl)C4=CC(=O)C=CC4(C)C3(Cl)C(O)CC2(C)C1C(=O)COC(=O)C(C)(C)C (centres undefined),238

# Continued, values first:
row,melting point [°C],SMILES
1,204 to 208,CCOP(=O)(Cc1nnc2c(=O)[nH]c3ccc(C(F)(F)F)cc3n12)OCC
2,44.4 to 46.9,N#CC1(CCCCCCCCCCCCC2(C(=O)O)CC2)CC1
3,43 to 45,O=C1C(c2cccc(Br)c2)n2cncc2CN1Cc1ccsc1 (centres undefined)
4,122 to 125,O=C1N(Cc2ccc(C(F)(F)F)o2)c2ccccc2C12COc1cc(NC3CCNC3)ccc12 (centres undefined)
5,105 to 107,COC(=O)C(CSCc1ccc(OC)cc1)NC(=O)NCCCCC1CCSS1 (centres undefined)
6,93 to 94.5,CC(c1ccc(O)cc1)(c1ccc(O)cc1)C(F)(F)F
7,103 to 104,COc1ccc(CN2C(=O)CCC2C(=O)O)cc1 (centres undefined)
8,178 to 181,Cc1ccc(-c2ccc3c(c2)C=C(C(=O)Nc2ccc(CN(C)C4CCOCC4)cc2)CCN3C)cc1
9,126 to 128,CC(C)(CNc1ccc(C2=NNC(=O)CC2)cc1)NCC(O)COc1ccccc1C#N (centres undefined)
10,102,CCS(=O)(=O)ON=C(C#N)c1ccc(OC)cc1
11,189,COc1ccc2c(c1)c1cc(-c3cc(F)cc(F)c3)c(=O)n(C)c1n2C
12,107 to 109,CC(c1ccccc1[N+](=O)[O-])S(N)(=O)=O (centres undefined)
13,> 80,Cc1c2n3ccc4c3c(c3cnccn3c-2cc(=O)c1=O)CCC4
14,116 to 118,COc1cccc(-c2ccc(-c3ccc(C(=O)O)cc3)cc2-c2ccc3c(c2)C(C)(C)CCC3(C)C)c1
15,153,COc1ccc(-c2n[nH]c3ccc([N+](=O)[O-])cc23)cc1
